According to PubChem BioAssay (NCI):
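Grown in 96-well plates, cells were treated for 48 hours with each compound at five concentrations. Insufficient inhibition: endpoint recorded as highest concentration tested. GI50: concentration for 50% inhibition of growth. The concentration for full growth arrest is given as TGI.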

How the values were obtained:
Test in all cases: NCI tumour cell line growth inhibition, 48 h
[1] = system: NCI-H460 lung
[2] = system: UACC-257 melanoma
[3] = system: OVCAR-5 ovarian
[4] = system: SNB-75 CNS
[5] = system: OVCAR-8 ovarian
[6] = system: NCI-H522 lung
[7] = system: HCT-116 colon
[8] = system: LOX IMVI melanoma
[9] = system: SN12C renal
[10] = system: UACC-62 melanoma
[11] = system: SNB-78 CNS
[12] = system: LXFL 529 NSCLC
[13] = system: A549 NSCLC
[14] = system: KM20L2 colon
[15] = system: CAKI-1 renal
[16] = system: OVCAR-4 ovarian
[17] = system: HOP-18 NSCLC
[18] = system: TK-10 renal
[19] = system: SR leukemia
[20] = system: CCRF-CEM leukemia
[21] = system: OVCAR-3 ovarian
[22] = system: SF-268 CNS
[23] = system: SNB-19 CNS
[24] = system: HL-60(TB) leukemia
[25] = system: SW-620 colon
[26] = system: K-562 leukemia
[27] = system: NCI-H23 lung
[28] = system: HCT-15 colon
[29] = system: A498 renal
[30] = system: COLO 205 colon
[31] = system: HOP-62 NSCLC
[32] = system: DMS 273 small cell lung
[33] = system: HCC-2998 colon
[34] = system: RXF-631 renal
[35] = system: SF-295 CNS
[36] = system: IGROV1 ovarian
[37] = system: DLD-1 colon
[38] = system: 786-0 renal
[39] = system: EKVX NSCLC
[40] = system: MOLT-4 leukemia
[41] = system: ACHN renal
[42] = system: MALME-3M melanoma
[43] = system: HOP-92 NSCLC
[44] = system: SK-OV-3 ovarian
[45] = system: RXF 393 renal
[46] = system: SK-MEL-28 melanoma
[47] = system: SK-MEL-5 melanoma
[48] = system: UO-31 renal
[49] = system: SK-MEL-2 melanoma
[50] = system: KM12 colon
[51] = system: NCI-H226 lung
[52] = system: HT29 colon
[53] = system: M14 melanoma
[54] = system: M19-MEL melanoma
[55] = system: SF-539 CNS
[56] = system: DMS 114 small cell lung
[57] = system: U251 CNS

CC1=C2C(=CC(C)(CO)C2O)C(=O)C(C)(O)C12CC2 (stereo not drawn)
TGI [1]: 4.6 nM
TGI [2]: 8.67 nM
TGI [3]: 25.8 nM
GI50 [4]: 5.76 nM
TGI [4]: 16.5 nM
TGI [5]: 12.7 nM
GI50 [6]: 0.88 nM
TGI [6]: 4.21 nM
TGI [7]: 47.8 nM
TGI [8]: 9.92 nM
TGI [9]: 118 nM
TGI [10]: 7.84 nM
TGI [11]: 47.9 nM
TGI [12]: 29.2 nM
TGI [13]: 90.2 nM
TGI [14]: 13.7 nM
TGI [15]: 18.3 nM
GI50 [16]: 3.78 nM
TGI [16]: 13.1 nM
TGI [17]: 33.1 nM
TGI [18]: 23.3 nM
TGI [19]: 146 nM
GI50 [20]: 1.72 nM
TGI [20]: 68.6 nM
TGI [21]: 19 nM
TGI [22]: 15.9 nM
TGI [23]: 42.2 nM
TGI [24]: 6.97 nM
TGI [25]: 58.5 nM
TGI [26]: 105 nM
TGI [27]: 9.96 nM
TGI [28]: 46.2 nM
TGI [29]: 20.4 nM
GI50 [30]: 4.54 nM
TGI [30]: 11.5 nM
TGI [31]: 14.7 nM
TGI [32]: 8.92 nM
TGI [33]: 9.03 nM
TGI [34]: 35.9 nM
TGI [35]: 3.92 nM
TGI [36]: 106 nM
TGI [37]: 73.8 nM
TGI [38]: 14 nM
TGI [39]: 33.5 nM
TGI [40]: 10.4 nM
TGI [41]: 13.2 nM
TGI [42]: 10.5 nM
TGI [43]: 14.4 nM
TGI [44]: 42.4 nM
TGI [45]: 5.69 nM
TGI [46]: 13.8 nM
TGI [47]: 3.6 nM
GI50 [48]: 16.4 nM
TGI [48]: 39 nM
TGI [49]: 4.22 nM
TGI [50]: 21.9 nM
TGI [51]: 15 nM
TGI [52]: 44.6 nM
TGI [53]: 10.4 nM
TGI [54]: 11.6 nM
TGI [55]: 15.2 nM
TGI [56]: 7.69 nM
TGI [57]: 21.1 nM
